Assay [1] concerns LldD L-lactate dehydrogenase. The following applies: read-out: KM_app; DCPIP 0.1 mM electron acceptor, PMS 0.25 mM, MgCl2 2 mM, phosphate pH 7.4, 37 °C.
The subject of assay [2] is T1, LdhA.
T1 construct: native soluble enzyme in cell-free extract of Hi2019; not purified; no tag
Description: NADH oxidation at […] nm, cell-free extract. It counts as cell-based, Haemophilus influenzae. The following applies: Tris-Cl pH 7.5, 37 °C.

The values below come from PMC8794153, “Access to highly specialized growth substrates and production of epithelial immunomodulatory metabolites determine survival of Haemophilus influenzae in human airway epithelial cells” (PLoS Pathogens, 2022).

With `C[C@H](O)C(=O)O` [L-lactate], the Km in assay [1] is 300 ± 30 µM.
Regarding `CC(=O)C(=O)O` [pyruvate], in assay [2] (NADH co-substrate), the Km was found to be 3380 ± 840 µM.
For the molecule `NC(=O)C1=CN([C@@H]2O[C@H](COP(=O)(O)OP(=O)(O)OC[C@H]3O[C@@H](n4cnc5c(N)ncnc54)[C@H](O)[C@@H]3O)[C@@H](O)[C@H]2O)C=CC1` [NADH], the Km in assay [2] (pyruvate co-substrate (std. 10 mM)) turned out to be 55 ± 3 µM.
